{"source": "paper PMC9614482", "about": "“The superior salinity tolerance of bread wheat cultivar Shanrong No. 3 is unlikely to be caused by elevated Ta-sro1 poly-(ADP-ribose) polymerase activity” (The Plant Cell, 2022)", "key": {"HsPARP1 (full-length)": {"biological_target": "T1, HsPARP1 (full-length) (Homo sapiens, UniProt P09874)", "T1 construct": "gene PARP1; full-length protein supplied in the PARP Universal Colorimetric Assay Kit (Trevigen)", "T1 sequence (P09874 2-1014)": "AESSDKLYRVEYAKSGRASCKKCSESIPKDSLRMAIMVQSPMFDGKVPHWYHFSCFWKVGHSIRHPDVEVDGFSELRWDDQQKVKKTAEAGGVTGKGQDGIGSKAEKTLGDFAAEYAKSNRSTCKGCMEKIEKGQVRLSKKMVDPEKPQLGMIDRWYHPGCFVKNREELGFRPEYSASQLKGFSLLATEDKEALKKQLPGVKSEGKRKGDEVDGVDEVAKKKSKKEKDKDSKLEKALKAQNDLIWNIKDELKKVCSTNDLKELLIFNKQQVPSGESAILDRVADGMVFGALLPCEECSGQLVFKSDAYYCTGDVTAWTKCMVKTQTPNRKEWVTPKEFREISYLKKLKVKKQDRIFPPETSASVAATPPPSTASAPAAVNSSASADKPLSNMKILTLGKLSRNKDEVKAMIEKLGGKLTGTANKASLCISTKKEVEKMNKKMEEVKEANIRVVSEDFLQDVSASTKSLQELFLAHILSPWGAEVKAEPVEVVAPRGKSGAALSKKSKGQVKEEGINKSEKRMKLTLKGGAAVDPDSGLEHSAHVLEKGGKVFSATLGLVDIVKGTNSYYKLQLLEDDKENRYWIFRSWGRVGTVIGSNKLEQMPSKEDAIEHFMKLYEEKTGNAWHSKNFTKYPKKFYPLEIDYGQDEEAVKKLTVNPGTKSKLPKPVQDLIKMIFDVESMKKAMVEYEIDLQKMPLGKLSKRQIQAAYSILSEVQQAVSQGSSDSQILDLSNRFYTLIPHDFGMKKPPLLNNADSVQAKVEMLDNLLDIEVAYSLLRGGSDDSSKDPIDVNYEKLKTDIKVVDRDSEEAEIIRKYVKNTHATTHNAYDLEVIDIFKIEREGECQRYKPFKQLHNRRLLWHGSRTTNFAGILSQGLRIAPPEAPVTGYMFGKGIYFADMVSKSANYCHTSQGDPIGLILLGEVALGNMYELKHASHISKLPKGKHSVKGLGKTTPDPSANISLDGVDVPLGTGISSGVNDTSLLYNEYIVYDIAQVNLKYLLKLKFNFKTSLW", "type": "biochemical", "settings": "histones as substrates"}, "[1]": {"biological_target": "T2, HsPARP1 catalytic domain (PARP domain) (Homo sapiens, UniProt P09874, L713F)", "T2 construct": "gene PARP1; recombinant, made in the authors' laboratory; only the L713F variant tested", "T2 sequence (P09874 662-1014 L713F limits assumed)": "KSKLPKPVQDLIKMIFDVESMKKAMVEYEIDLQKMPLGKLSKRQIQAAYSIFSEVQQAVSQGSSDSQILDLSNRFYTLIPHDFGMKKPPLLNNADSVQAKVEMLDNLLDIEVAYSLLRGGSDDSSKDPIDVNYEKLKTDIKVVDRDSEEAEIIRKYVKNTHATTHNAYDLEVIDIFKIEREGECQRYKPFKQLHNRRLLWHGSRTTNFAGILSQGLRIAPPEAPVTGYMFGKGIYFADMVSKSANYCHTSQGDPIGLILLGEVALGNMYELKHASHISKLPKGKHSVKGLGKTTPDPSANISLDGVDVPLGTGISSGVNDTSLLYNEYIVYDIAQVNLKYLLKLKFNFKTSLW", "experiment": "differential scanning fluorimetry", "type": "binding", "settings": "6(5H)-phenanthridinone concentrations above 2 µM"}, "AtPARP2": {"biological_target": "T3, AtPARP2 (Arabidopsis thaliana, UniProt Q11207)", "T3 construct": "gene PARP2; GFP fusion, transiently expressed in Nicotiana benthamiana, immunoprecipitated with GFP-nanobody", "T3 sequence (Q11207 whole entry, the tested form may be a part)": "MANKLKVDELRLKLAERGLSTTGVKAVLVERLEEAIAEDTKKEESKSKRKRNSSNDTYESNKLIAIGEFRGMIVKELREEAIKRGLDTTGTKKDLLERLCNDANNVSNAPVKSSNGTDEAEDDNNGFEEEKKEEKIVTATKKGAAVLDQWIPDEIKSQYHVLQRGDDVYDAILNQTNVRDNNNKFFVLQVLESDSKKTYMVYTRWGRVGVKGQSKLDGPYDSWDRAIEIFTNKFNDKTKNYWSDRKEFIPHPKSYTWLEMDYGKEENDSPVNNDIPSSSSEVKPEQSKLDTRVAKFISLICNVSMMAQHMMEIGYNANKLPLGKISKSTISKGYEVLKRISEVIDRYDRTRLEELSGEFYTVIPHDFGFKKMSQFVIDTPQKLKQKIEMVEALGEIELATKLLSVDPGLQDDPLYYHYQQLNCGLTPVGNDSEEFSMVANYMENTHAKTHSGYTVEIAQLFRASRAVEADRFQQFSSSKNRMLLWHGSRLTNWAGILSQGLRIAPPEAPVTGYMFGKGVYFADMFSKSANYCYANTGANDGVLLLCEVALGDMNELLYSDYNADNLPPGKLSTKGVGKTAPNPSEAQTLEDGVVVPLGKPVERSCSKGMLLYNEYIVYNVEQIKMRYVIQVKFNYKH", "experiment": "immunoprecipitated GFP fusion, pan-ADP-ribose immunoblot", "type": "biochemical", "settings": "300 µM β-NAD+ in extraction buffer; auto-ADP-ribosylation, PAR chain formation"}}}
{"smiles": "NC(=O)c1cccc(N)c1", "note": "[3-aminobenzamide]", "values": [{"measurement": "colorimetric PARP assay kit, ADP-ribosylation of histones", "setting": "HsPARP1 (full-length)", "result": "3-aminobenzamide (3AB) inhibited ADP-ribosylation of histones by HsPARP1"}]}
{"smiles": "O=c1[nH]c2ccccc2c2ccccc12", "note": "[6(5H)-phenanthridinone]", "values": [{"measurement": "dTm", "setting": "[1]", "result": "~ +4 °C"}]}
{"smiles": "NC(=O)c1ccc[n+]([C@@H]2O[C@H](COP(=O)(O)OP(=O)(O)OC[C@H]3O[C@@H](n4cnc5c(N)ncnc54)[C@H](O)[C@@H]3O)[C@@H](O)[C@H]2O)c1", "note": "[NAD+]", "values": [{"measurement": "immunoprecipitated GFP fusion, pan-ADP-ribose immunoblot", "setting": "AtPARP2", "result": "canonical Arabidopsis PARP2 enzyme formed PAR chains in a NAD^+-dependent manner"}]}
